Tested on: normal human melanocytes
Experiment: Depigmenting activity (reduction of melanin production) in normal human melanocytes in vitro
Format: cell-based
Conditions: compound at 100 μM, 72 hours incubation, optical density (amount of melanin)
Experimental: The depigmenting activity (reduction of melanin production) of compounds of formula (I) was measured by assay in normal human melanocytes in vitro as follows.
First, normal human melanocytes are cultured and distributed in a multiple-well plate.
After 24 hours, the culture medium was replaced with a medium containing the compounds of formula (I) to be evaluated. The cells were incubated for 72 hours before measuring the final optical density, which measures the amount of melanin produced by the melanocytes. The measurement was calibrated and the compounds were tested at 100 μM.
Various test runs were performed and the results are collated in the following tables.

O=C(O)C[C@@H]1O[C@H](CO)[C@@H](O)[C@H](O)[C@H]1O [Compound 2]
% depigmentation at 100 μM, Run 2 (Run 2): 29%

CC(=O)OC[C@H]1OC(CC(=O)O)[C@H](OC(C)=O)[C@@H](OC(C)=O)[C@@H]1OC(C)=O (stereo partly drawn) [Compound 1]
% depigmentation at 100 μM, Run 3 (Run 3): 24%

C[C@@H]1OC(CC(=O)N(C)C)[C@H](O)[C@H](O)[C@H]1O (stereo partly drawn) [Compound 4]
% depigmentation at 100 μM, Run 1 (Run 1): 15%

Reference: patent publication US12606534B2, “Method for the treatment of keratin materials using acid, ester or amide C-glycoside derivatives, and cosmetic composition containing same” (L'OREAL, priority 2016, dated 2026)
